As a reminder, the IC50 is the point on the concentration scale where inhibition reaches its midpoint. Low values mean greater potency, high ones weaker potency.

In the test the test system is BaF3-FL KIT D816V or BaF3-FL KIT V560G/D816V cell line. Description: Cell-based assays of c-Kit mutant kinase activity (cell growth, ATPlite). The note with it: at least one of the c-kit cell assays of Example 26. The procedure, abridged:
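IC50 derived from ATP-content luminescence (ATPlite) after three-day compound exposure at 37° C., 5% CO2. Cells: BaF3 rendered growth-dependent on full-length human KIT D816V or V560G/D816V, 1×10^4 per well, RPMI plus 10% FBS; 8 points, 1:3 steps, maximum 10 μM final, 0.2% DMSO.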
(ATP-based viability assays read luminescence as a measure of living cells.)
Take `Cc1n[nH]c(C(=O)Nc2cnc3[nH]c(-c4cccc(OC(F)(F)F)c4)cc3c2)c1C` [P-2086, 3,4-dimethyl-N-[2-[3-(trifluoromethoxy)phenyl]-1H-pyrrolo[2,3-b]pyridin-5-yl]-1H-pyrazole-5-carboxamide]: the IC50 is < 10 µM.
The same measure for `Cc1n[nH]c(C(=O)Nc2cnc3[nH]c(-c4ccc(N5CCCC5)cc4)cc3c2)c1C` [P-2125, 3,4-dimethyl-N-[2-(4-pyrrolidin-1-ylphenyl)-1H-pyrrolo[2,3-b]pyridin-5-yl]-1H-pyrazole-5-carboxamide]: < 10 µM; for `COc1cc(-c2cc3cc(NC(=O)c4[nH]nc(C)c4C)cnc3[nH]2)ccn1` [P-2109, N-[2-(2-methoxy-4-pyridyl)-1H-pyrrolo[2,3-b]pyridin-5-yl]-3,4-dimethyl-1H-pyrazole-5-carboxamide]: < 10 µM.
On to `O=C(Nc1cnc2[nH]c(-c3ccc(F)cc3)cc2c1)c1ncn[nH]1` [P-2035, N-[2-(4-fluorophenyl)-1H-pyrrolo[2,3-b]pyridin-5-yl]-1H-1,2,4-triazole-5-carboxamide], for which the concentration for half-maximal inhibition (IC50) is < 10 µM.
For the compound `CCc1cncc(-c2cc3cc(NC(=O)c4n[nH]c(C)c4C)cnc3[nH]2)c1` [P-2256, N-(2-(5-ethylpyridin-3-yl)-1H-pyrrolo[2,3-b]pyridin-5-yl)-4,5-dimethyl-1H-pyrazole-3-carboxamide], the half-maximal inhibitory concentration (IC50) is < 10 µM.
On to `Cc1n[nH]c(C(=O)Nc2cnc3[nH]c(-c4cnn(C5CCN(C(=O)OC(C)(C)C)CC5)c4)cc3c2)c1C` [P-2306, tert-butyl 4-[4-[5-[(3,4-dimethyl-1H-pyrazole-5-carbonyl)amino]-1H-pyrrolo[2,3-b]pyridin-2-yl]pyrazol-1-yl]piperidine-1-carboxylate], for which the half-inhibitory concentration (IC50) was < 10 µM.
With `Cc1n[nH]c(C(=O)Nc2cnc3[nH]c(-c4ccncc4)cc3c2)c1C` [P-2124, 3,4-dimethyl-N-[2-(4-pyridyl)-1H-pyrrolo[2,3-b]pyridin-5-yl]-1H-pyrazole-5-carboxamide] the figure was < 10 µM; with `Cc1n[nH]c(C(=O)Nc2cnc3[nH]c(C4=CCCCC4)cc3c2)c1C` [P-2307, N-[2-(cyclohexen-1-yl)-1H-pyrrolo[2,3-b]pyridin-5-yl]-3,4-dimethyl-1H-pyrazole-5-carboxamide], < 10 µM.
As for `Cc1n[nH]c(C(=O)Nc2cnc3[nH]c(-c4ccccc4Cl)cc3c2)c1C` [P-2096, N-[2-(2-chlorophenyl)-1H-pyrrolo[2,3-b]pyridin-5-yl]-3,4-dimethyl-1H-pyrazole-5-carboxamide], the IC50 is < 10 µM.
The same measure for `Cc1n[nH]c(C(=O)Nc2cnc3[nH]c(-c4cnn(C(F)F)c4)cc3c2)c1C` [P-2140, N-[2-[1-(difluoromethyl)pyrazol-4-yl]-1H-pyrrolo[2,3-b]pyridin-5-yl]-3,4-dimethyl-1H-pyrazole-5-carboxamide]: < 10 µM; for `Cc1nn(C2CCNCC2)cc1-c1cc2cc(NC(=O)c3n[nH]c(C)c3C)cnc2[nH]1` [P-2201, 4,5-dimethyl-N-(2-(3-methyl-1-(piperidin-4-yl)-1H-pyrazol-4-yl)-1H-pyrrolo[2,3-b]pyridin-5-yl)-1H-pyrazole-3-carboxamide]: < 10 µM; for `Cc1nc(C)c(-c2cc3cc(NC(=O)c4[nH]nc(C)c4C)cnc3[nH]2)s1` [P-2139, N-[2-(2,4-dimethylthiazol-5-yl)-1H-pyrrolo[2,3-b]pyridin-5-yl]-3,4-dimethyl-1H-pyrazole-5-carboxamide]: < 10 µM.
With `Cc1n[nH]c(C(=O)Nc2cnc3[nH]c(-c4ccc(N5CCN(C)CC5)cc4)cc3c2)c1C` [P-2104, 3,4-dimethyl-N-[2-[4-(4-methylpiperazin-1-yl)phenyl]-1H-pyrrolo[2,3-b]pyridin-5-yl]-1H-pyrazole-5-carboxamide] the figure was < 10 µM; with `Cc1[nH]nc(C(=O)Nc2cnc3[nH]c(-c4ccnc(NC(=O)C5CC5)c4)cc3c2)c1C` [P-2206, N-(2-(2-(cyclopropanecarboxamido)pyridin-4-yl)-1H-pyrrolo[2,3-b]pyridin-5-yl)-4,5-dimethyl-1H-pyrazole-3-carboxamide], < 10 µM.
As for `Cc1[nH]nc(C(=O)Nc2cnc3[nH]c(-c4ccc(F)cc4F)cc3c2)c1C` [P-2260, N-(2-(2,4-difluorophenyl)-1H-pyrrolo[2,3-b]pyridin-5-yl)-4,5-dimethyl-1H-pyrazole-3-carboxamide], the IC50 is < 10 µM.
Take `CC(C)=CC(=O)N1CCN(c2cc(-c3cc4cc(NC(=O)c5n[nH]c(C)c5C)cnc4[nH]3)ccn2)CC1` [P-2215, 4,5-dimethyl-N-(2-(2-(4-(3-methylbut-2-enoyl)piperazin-1-yl)pyridin-4-yl)-1H-pyrrolo[2,3-b]pyridin-5-yl)-1H-pyrazole-3-carboxamide]: the half-maximal inhibitory concentration (IC50) was < 10 µM.
Turning to `Cc1[nH]nc(C(=O)Nc2cnc3[nH]cc(-c4cccc(N5CCOCC5)n4)c3c2)c1C` [P-2192, 4,5-dimethyl-N-(3-(6-morpholinopyridin-2-yl)-1H-pyrrolo[2,3-b]pyridin-5-yl)-1H-pyrazole-3-carboxamide], the half-inhibitory concentration (IC50) is < 10 µM.
With `O=C(c1cccnc1)c1cnc2[nH]c(-c3ccccc3)cc2c1` [P-2002, (2-phenyl-1H-pyrrolo[2,3-b]pyridin-5-yl)-(3-pyridyl)methanone] the figure was < 10 µM.
Take `Cc1[nH]nc(C(=O)Nc2cnc3[nH]c(-c4ccnc(C(=O)NCCN5CCN(C)CC5)c4)cc3c2)c1C` [P-2226, 4-(5-(4,5-dimethyl-1H-pyrazole-3-carboxamido)-1H-pyrrolo[2,3-b]pyridin-2-yl)-N-(2-(4-methylpiperazin-1-yl)ethyl)picolinamide]: the IC50 is < 10 µM.
Consider `O=C(Nc1cnc2[nH]c(-c3ccccc3)cc2c1)c1n[nH]c(Cl)c1C(F)F` [P-2236, 5-chloro-4-(difluoromethyl)-N-(2-phenyl-1H-pyrrolo[2,3-b]pyridin-5-yl)-1H-pyrazole-3-carboxamide], for which the half-inhibitory concentration (IC50) was < 10 µM.
In the case of `Cc1n[nH]c(C(=O)Nc2cnc3[nH]c(-c4cccc(C#N)c4)cc3c2)c1C` [P-2128, N-[2-(3-cyanophenyl)-1H-pyrrolo[2,3-b]pyridin-5-yl]-3,4-dimethyl-1H-pyrazole-5-carboxamide], the IC50 was < 10 µM.
With `Cc1[nH]nc(C(=O)Nc2cnc3[nH]c(-c4ccnc(C(=O)N5CCOCC5)c4)cc3c2)c1C` [P-2216, 4,5-dimethyl-N-(2-(2-(morpholine-4-carbonyl)pyridin-4-yl)-1H-pyrrolo[2,3-b]pyridin-5-yl)-1H-pyrazole-3-carboxamide] the figure was < 10 µM; with `COc1nccc(-c2cc3cc(NC(=O)c4[nH]nc(C)c4C)cnc3[nH]2)c1Cl` [P-2171, N-[2-(3-chloro-2-methoxy-4-pyridyl)-1H-pyrrolo[2,3-b]pyridin-5-yl]-3,4-dimethyl-1H-pyrazole-5-carboxamide], < 10 µM.
As for `Cc1[nH]nc(C(=O)Nc2cnc3[nH]c(-c4ccnc(N5CCC(O)CC5)c4)cc3c2)c1C` [P-2212, N-(2-(2-(4-hydroxypiperidin-1-yl)pyridin-4-yl)-1H-pyrrolo[2,3-b]pyridin-5-yl)-4,5-dimethyl-1H-pyrazole-3-carboxamide], the half-maximal inhibitory concentration (IC50) was < 10 µM.
With `Cc1[nH]nc(C(=O)Nc2cnc3[nH]c(-c4ccnc(N5CCCC(O)C5)c4)cc3c2)c1C` (stereo not shown) [P-2213, N-(2-(2-(3-hydroxypiperidin-1-yl)pyridin-4-yl)-1H-pyrrolo[2,3-b]pyridin-5-yl)-4,5-dimethyl-1H-pyrazole-3-carboxamide] the figure was < 10 µM.
With `CCCCNC(=O)Nc1cccc(-c2cc3cc(NC(=O)c4[nH]nc(C)c4C)cnc3[nH]2)c1` [P-2134, N-[2-[3-(butylcarbamoylamino)phenyl]-1H-pyrrolo[2,3-b]pyridin-5-yl]-3,4-dimethyl-H-pyrazole-5-carboxamide] the figure was < 10 µM; with `O=C(Nc1cnc2[nH]c(-c3ccccc3)cc2c1)c1n[nH]c(Cl)c1C(F)(F)F` [P-2233, 5-chloro-N-(2-phenyl-1H-pyrrolo[2,3-b]pyridin-5-yl)-4-(trifluoromethyl)-1H-pyrazole-3-carboxamide], < 10 µM; with `Cc1n[nH]c(C(=O)Nc2cnc3[nH]c(-c4ccc(P(C)(C)=O)cc4)cc3c2)c1C` [P-2127, N-[2-(4-dimethylphosphorylphenyl)-1H-pyrrolo[2,3-b]pyridin-5-yl]-3,4-dimethyl-1H-pyrazole-5-carboxamide], < 10 µM.
`Cc1n[nH]c(C(=O)Nc2cnc3[nH]c(-c4ccc(C(=O)N5CCOCC5)cc4)cc3c2)c1C` [P-2138, 3,4-dimethyl-N-[2-[4-(morpholine-4-carbonyl)phenyl]-1H-pyrrolo[2,3-b]pyridin-5-yl]-1H-pyrazole-5-carboxamide]: the half-maximal inhibitory concentration (IC50) was < 10 µM.
For the compound `Cc1[nH]nc(C(=O)Nc2cnc3[nH]c(C4=CCOCC4)cc3c2)c1C` [P-2265, N-(2-(3,6-dihydro-2H-pyran-4-yl)-1H-pyrrolo[2,3-b]pyridin-5-yl)-4,5-dimethyl-1H-pyrazole-3-carboxamide], the 50% inhibitory concentration (IC50) is < 10 µM.
Consider `Cc1cc(-c2cc3cc(NC(=O)c4n[nH]c(C)c4C)cnc3[nH]2)cnc1C` [P-2244, N-(2-(5,6-dimethylpyridin-3-yl)-H-pyrrolo[2,3-b]pyridin-5-yl)-4,5-dimethyl-1H-pyrazole-3-carboxamide], for which the IC50 is < 10 µM.
As for `Cc1n[nH]c(C(=O)Nc2cnc3[nH]c(-c4ccc(F)cc4)cc3c2)n1` [P-2131, N-[2-(4-fluorophenyl)-1H-pyrrolo[2,3-b]pyridin-5-yl]-3-methyl-1H-1,2,4-triazole-5-carboxamide], the half-inhibitory concentration (IC50) is < 10 µM.
With `Cc1cc(C(=O)Nc2cnc3[nH]c(-c4ccc(F)cc4)cc3c2)nn1C` [P-2119, N-[2-(4-fluorophenyl)-1H-pyrrolo[2,3-b]pyridin-5-yl]-1,5-dimethyl-pyrazole-3-carboxamide] the figure was < 10 µM.
On to `Cc1n[nH]c(C(=O)N(C)c2cnc3[nH]c(-c4ccccc4)cc3c2)c1C` [P-2304, N,3,4-trimethyl-N-(2-phenyl-1H-pyrrolo[2,3-b]pyridin-5-yl)-1H-pyrazole-5-carboxamide], for which the 50% inhibitory concentration (IC50) is < 10 µM.

The values are drawn from patent publication US10301280B2 (Plexxikon Inc., priority 2012, dated 2019).
